The test system of one assay is Nakaseomyces glabratus. As to the kind of experiment: Antifungal activity against Candida glabrata. The class given is functional.
A further assay relates to Candida albicans. Description: Antifungal activity against Candida albicans ATCC 10231. The format is functional.

Values after ≈ are worked out from the molar mass of the structure shown.

As usually defined, the MIC is the smallest concentration in the dilution series that meets the test's criterion for growth inhibition. Read a high MIC as a less susceptible organism. Take `CCCCCCCCC[C@@H](O)[C@H](C)N`: the results for the MIC in the assay on Nakaseomyces glabratus and in the assay with Candida albicans were 30 µg/mL (≈ 149 µM) and 0.7 µg/mL (≈ 3.48 µM), respectively.
NYSTATIN: in the assay with Candida albicans, inhibition of growth (MIC) required 1 µg/mL.
`CC(=O)N1CCN(c2ccc(OCC3COC(Cn4ccnc4)(c4ccc(Cl)cc4Cl)O3)cc2)CC1` (centres undefined) [KETOCONAZOLE] displayed an MIC in the assay with Candida albicans of 0.01 µg/mL (≈ 0.0188 µM).

For the origin of these results see ChEMBL document CHEMBL1148949, “(2S,3R)-2-aminododecan-3-ol, a new antifungal agent from the ascidian Clavelina oblonga” (2004).
